Patent US20240383900A1, “SUBSTITUTED PYRAZOLO [1,5-A]PYRIMIDINE-7-AMINE COMPOUNDS AS CDK INHIBITORS AND THEIR THERAPEUTIC USE” (Carrick Therapeutics Limited, priority 2021, published 2024)
Like-named read-outs stand apart in the source and are kept apart here.

Assays:
Human CDK12 wt/CycK = Human CDK12 wt/CycK (Homo sapiens (Human), UniProt Q9NYV4); assay: Radiometric protein kinase assay (33PanQinase Activity Assay), CDK12; format: biochemical; conditions: for CDK7/CDK12: ratio of CDK7 IC50 to CDK12 IC50, greater than 1 indicates selectivity for CDK12
Procedure, shortened: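 Radiometric 33P assay: ATP, test compound (in 10% DMSO) and premixed substrate/enzyme incubated 60 min at 30 °C, stopped with 2% H3PO4. 33Pi incorporation counted by scintillation; least-squares curve fit.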

Human CDK7/CycH/MAT1 = Human CDK7/CycH/MAT1 (Homo sapiens (Human), UniProt P50613); assay: Radiometric protein kinase assay (33PanQinase Activity Assay), CDK7; format: biochemical; conditions: ATP 3 μM
A673 cells [1] = assay: Cytotoxicity in A673 cells (Cell Titer Glo viability); format: cell-based; conditions: for Ratio of Biochemical Potency:Cellular Potency: CDK12 IC50 / A673 IC50; for IC50: Homo sapiens
Procedure, shortened: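 Cells plated at 1.2×10^5 per well in DMEM+10% FBS, 24 h, then compound series ± MLN4924 (30 nM final) in 0.1% DMSO for 72 h. Viability by Cell Titer Glo luminescence, normalised to vehicle (100%) and 0.1% Triton x-100 (0%); MLN4924 curves normalised to MLN4924-treated controls.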

A673 cells [2] = assay: A673 cytotoxic potency shift in the presence of MLN4924 (cyclin K degrader activity); format: cell-based; conditions: 30 nM MLN4924, 72 hours
Method: Inhibition of cell viability by test compounds was assessed in A673 cells (ATCC CRL-1598) and the compound mode of action was attributed to a “molecular-glue”/cyclin K-degradation mechanism by probing for a loss of compound potency in the presence of the NEDD8-activating enzyme inhibitor, MLN4924.
Cells were plated in 96-well plates at a density of […] viable cells per well in 200 μL fully supplemented growth medium (DMEM+10% heat inactivated foetal bovine serum) and incubated for 24 hours in standard tissue culture conditions. Compounds, including MLN4924, were solubilised in DMSO and then diluted in fully supplemented growth medium at 2× their final assay concentration such that the final DMSO concentration was 0.1%. Growth medium in the assay plates was replaced with 50 μL of growth medium containing 2×MLN4924 (final assay concentration: 30 nM, where tested) or vehicle only and 50 μL of growth medium containing a 2× compound concentration series or vehicle only such that each compound was at 1× final assay concentration in 100 μL.
Cells were then incubated for 72 hours in standard tissue culture conditions before viability was assessed using 50 μL Cell Titer Glo reagent (Promega) per well and luminescence measured on an EnVision plate reader. Data were normalised to vehicle control (100%) and cells treated with 0.1% Triton x-100 for 1 hour before viability measurement (0%; full cell kill). IC50 values were determined using a semi-logistic curve fit with parameters “top” fixed at 100% and “bottom” at or below 0%. Viability curves generated in the presence of MLN4924 were normalised and fixed to controls treated with MLN4924.

[3] = ATP 0.3 μM, read-out: CDK12 IC50
[4] = read-out: CKD12 Biochemical Potency IC50
[5] = A673, read-out: Cellular Potency IC50 (nM) (in A673 cells)
[6] = A673 cells, 72 hours, read-out: A673 IC50

Human CDK7/CycH/MAT1, sequence (P50613 whole entry): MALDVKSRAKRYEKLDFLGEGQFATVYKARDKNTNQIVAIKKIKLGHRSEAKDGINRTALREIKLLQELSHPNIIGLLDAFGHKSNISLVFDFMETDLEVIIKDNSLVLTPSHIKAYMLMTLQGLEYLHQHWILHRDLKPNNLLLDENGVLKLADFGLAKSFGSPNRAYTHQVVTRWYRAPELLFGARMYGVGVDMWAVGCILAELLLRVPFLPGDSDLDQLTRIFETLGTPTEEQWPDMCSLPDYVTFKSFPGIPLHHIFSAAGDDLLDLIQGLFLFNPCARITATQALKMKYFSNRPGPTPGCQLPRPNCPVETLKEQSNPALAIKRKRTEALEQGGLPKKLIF
Human CDK7/CycH/MAT1, sequence (P51946 whole entry partner): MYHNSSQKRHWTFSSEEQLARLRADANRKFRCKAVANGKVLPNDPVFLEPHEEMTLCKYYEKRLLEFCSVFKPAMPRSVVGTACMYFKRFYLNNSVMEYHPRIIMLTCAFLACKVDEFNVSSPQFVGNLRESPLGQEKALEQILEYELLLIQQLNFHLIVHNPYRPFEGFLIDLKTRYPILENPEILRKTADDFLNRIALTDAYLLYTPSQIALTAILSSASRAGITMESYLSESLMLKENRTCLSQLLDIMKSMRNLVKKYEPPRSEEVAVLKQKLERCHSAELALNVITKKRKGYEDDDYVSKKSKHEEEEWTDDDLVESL
Human CDK7/CycH/MAT1, sequence (P51948 whole entry partner): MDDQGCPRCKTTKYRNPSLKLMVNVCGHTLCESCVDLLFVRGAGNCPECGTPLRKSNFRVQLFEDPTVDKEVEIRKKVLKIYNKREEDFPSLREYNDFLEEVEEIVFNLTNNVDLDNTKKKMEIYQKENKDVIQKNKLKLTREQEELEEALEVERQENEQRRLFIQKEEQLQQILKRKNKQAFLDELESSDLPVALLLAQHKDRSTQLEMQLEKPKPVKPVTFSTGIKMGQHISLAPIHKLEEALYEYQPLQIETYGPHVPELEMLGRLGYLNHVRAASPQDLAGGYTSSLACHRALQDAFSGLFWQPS
Human CDK12 wt/CycK, sequence (Q9NYV4 whole entry): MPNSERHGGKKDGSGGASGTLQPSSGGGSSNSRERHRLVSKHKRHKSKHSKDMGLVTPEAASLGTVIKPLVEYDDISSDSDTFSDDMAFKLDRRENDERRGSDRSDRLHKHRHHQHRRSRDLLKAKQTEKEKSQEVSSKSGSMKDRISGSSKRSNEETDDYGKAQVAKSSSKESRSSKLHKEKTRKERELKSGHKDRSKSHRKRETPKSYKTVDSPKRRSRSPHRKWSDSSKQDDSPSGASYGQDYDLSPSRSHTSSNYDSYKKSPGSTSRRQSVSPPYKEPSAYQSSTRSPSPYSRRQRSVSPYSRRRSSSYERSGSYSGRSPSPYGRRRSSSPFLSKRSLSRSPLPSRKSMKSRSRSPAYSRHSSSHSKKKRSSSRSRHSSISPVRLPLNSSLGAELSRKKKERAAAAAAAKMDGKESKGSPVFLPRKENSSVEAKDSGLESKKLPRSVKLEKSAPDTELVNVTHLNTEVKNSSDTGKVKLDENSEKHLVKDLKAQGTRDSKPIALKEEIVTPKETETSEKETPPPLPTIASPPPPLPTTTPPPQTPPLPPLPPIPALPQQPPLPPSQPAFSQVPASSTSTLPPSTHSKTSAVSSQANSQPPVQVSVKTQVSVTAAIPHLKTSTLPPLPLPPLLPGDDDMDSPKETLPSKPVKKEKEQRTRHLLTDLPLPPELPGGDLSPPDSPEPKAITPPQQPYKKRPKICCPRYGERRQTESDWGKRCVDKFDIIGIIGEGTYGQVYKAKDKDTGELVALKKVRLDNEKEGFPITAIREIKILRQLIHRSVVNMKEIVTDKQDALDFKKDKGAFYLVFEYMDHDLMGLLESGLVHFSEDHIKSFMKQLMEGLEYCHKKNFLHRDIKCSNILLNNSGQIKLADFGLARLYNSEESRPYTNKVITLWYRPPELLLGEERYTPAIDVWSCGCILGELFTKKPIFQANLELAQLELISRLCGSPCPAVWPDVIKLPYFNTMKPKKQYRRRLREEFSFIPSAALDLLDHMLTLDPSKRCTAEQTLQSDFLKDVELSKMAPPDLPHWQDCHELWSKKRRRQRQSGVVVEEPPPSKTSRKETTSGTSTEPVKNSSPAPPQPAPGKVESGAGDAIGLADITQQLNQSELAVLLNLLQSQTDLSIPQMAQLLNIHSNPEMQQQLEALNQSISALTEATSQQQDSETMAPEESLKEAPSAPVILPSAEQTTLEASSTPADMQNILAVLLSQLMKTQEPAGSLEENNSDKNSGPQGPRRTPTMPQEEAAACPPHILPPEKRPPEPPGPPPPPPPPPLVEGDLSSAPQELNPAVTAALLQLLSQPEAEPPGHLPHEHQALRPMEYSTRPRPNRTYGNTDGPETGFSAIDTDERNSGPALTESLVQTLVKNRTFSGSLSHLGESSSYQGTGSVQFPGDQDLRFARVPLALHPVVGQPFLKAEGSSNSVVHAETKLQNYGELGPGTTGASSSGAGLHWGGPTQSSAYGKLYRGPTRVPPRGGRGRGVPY
Human CDK12 wt/CycK, sequence (O75909 whole entry partner): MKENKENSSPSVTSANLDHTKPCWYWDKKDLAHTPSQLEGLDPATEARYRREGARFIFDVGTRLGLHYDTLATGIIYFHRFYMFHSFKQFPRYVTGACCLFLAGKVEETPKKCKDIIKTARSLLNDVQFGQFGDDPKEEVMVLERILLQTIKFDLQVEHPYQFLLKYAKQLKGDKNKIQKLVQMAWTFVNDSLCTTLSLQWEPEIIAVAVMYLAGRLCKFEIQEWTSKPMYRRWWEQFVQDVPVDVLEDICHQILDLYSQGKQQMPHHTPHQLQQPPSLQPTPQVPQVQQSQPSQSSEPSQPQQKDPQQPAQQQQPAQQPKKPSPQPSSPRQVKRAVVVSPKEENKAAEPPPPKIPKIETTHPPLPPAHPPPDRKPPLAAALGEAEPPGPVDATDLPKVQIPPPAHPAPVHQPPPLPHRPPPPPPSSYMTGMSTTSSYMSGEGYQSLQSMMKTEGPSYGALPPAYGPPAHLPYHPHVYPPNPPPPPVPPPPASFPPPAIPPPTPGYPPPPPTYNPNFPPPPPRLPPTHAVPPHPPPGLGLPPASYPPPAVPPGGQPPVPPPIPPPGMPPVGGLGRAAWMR

Row | SMILES | IC50 (Human CDK12 wt/CycK; [3]) [nM] | CDK7/CDK12 (Human CDK12 wt/CycK) | IC50 (Human CDK12 wt/CycK; [4]) [nM] | IC50 (Human CDK7/CycH/MAT1) [nM] | Ratio of Biochemical Potency:Cellular Potency (A673 cells [1]) | IC50 (A673 cells [1]; [5]) [nM] | IC50 (A673 cells [1]; [6]) [nM] | Cyclin K Degrader Activity (A673 potency shift + MLN4924) (A673 cells [2])
1 | O[C@H]1CNCC[C@@H]1CNc1cc(NCc2ccc(-c3ccccc3)cc2)n2ncc(C3CC3)c2n1 [PPA-059] | 158 | 4.0 | 158 | 637 | 12.54 | 12.6 | 12.6 | +++ (>5 fold change.)
2 | c1ccc(-c2ccc(CNc3cc(NCC4CCNCC4)nc4c(C5CC5)cnn34)cc2)nc1 [PPA-040] | 743 | 9.3 | 743 | 6920 | 36.78 | 20.2 | 20.2 | +++ (>5 fold change.)
3 | Cc1n[nH]cc1-c1cc(NCc2ccc(-c3ccccn3)cc2)n2ncc(C3CC3)c2n1 [PPA-095] |  |  |  |  |  | 43.5 | 4.7 | + (>1 and ≤2 fold change.)
4 | c1ccc(-c2ccc(CNc3cc(C4CCNCC4)nc4c(C5CC5)cnn34)cc2)nc1 [PPA-100] |  |  |  |  |  | 1.5 | 43.5 | +++ (>5 fold change.)
5 | N#Cc1cnn2c(NCc3ccc(-c4ncccn4)cc3)cc(N[C@H]3CCCNC3)nc12 [PPA-094] |  |  |  |  |  | 0.9 | 1.9 | +++ (>5 fold change.)
6 | CC(C)c1cnn2c(NCc3ccc(-c4ccncn4)cc3)cc(NC[C@H]3CCNC[C@@H]3O)nc12 [PPA-008] | 52 | 3.0 | 52 | 154 | 1.63 | 32 | 32 | 
7 | c1csc(-c2ccc(CNc3cc(N[C@H]4CCNC4)nc4c(C5CC5)cnn34)cc2)n1 [PPA-098] |  |  |  |  |  | 8.1 | 3.2 | +++ (>5 fold change.)
8 | COc1cc(CNc2cc(NC[C@H]3CCNC[C@@H]3O)nc3c(C4CC4)cnn23)ccc1-c1ccccn1 [PPA-015] | 235 | 1.9 | 235 | 445 | 1.31 | 179 | 179 | 
9 | Cc1nccn1-c1ccc(CNc2cc(NC[C@H]3CCNC[C@@H]3O)nc3c(C4CC4)cnn23)cc1 [PPA-023] | 236 | 0.5 | 236 | 113 | <0.47 | > 500 | > 500 | 
10 | Cc1ncccc1-c1cc(NCc2ccc(-c3ccccn3)cc2)n2ncc(C3CC3)c2n1 [PPA-096] |  |  |  |  |  | 14.9 | 7.6 | +++ (>5 fold change.)
11 | O[C@H]1CNCC[C@@H]1CNc1cc(NCc2ccc(-c3ncccc3OC(F)(F)F)cc2)n2ncc(C3CC3)c2n1 [PPA-028] | 242 | 1.9 | 242 | 468 | 24.95 | 9.7 | 9.7 | 
12 | c1ccc(-c2ccc(CNc3cc(N4CCOCC4)nc4c(C5CC5)cnn34)cc2)nc1 [PPA-033] | 1050 | 6.3 | 1050 | 6650 | 19.81 | 53 | 53 | 
13 | O[C@H]1CNCC[C@@H]1CNc1cc(NCc2cn(-c3ccccn3)cn2)n2ncc(C3CC3)c2n1 [PPA-025] | 78 | 7.5 | 78 | 587 | 13.22 | 5.9 | 5.9 | 
14 | c1cnn(-c2ccc(CNc3cc(OC4CNC4)nc4c(C5CC5)cnn34)cc2)c1 [PPA-097] |  |  |  |  |  | 3.5 | 0.4 | +++ (>5 fold change.)
15 | O[C@H]1CNCC[C@@H]1CNc1cc(NCc2ccc(-c3ccccc3)cc2F)n2ncc(C3CC3)c2n1 [PPA-066] | 174 | 5.2 | 174 | 912 | 7.13 | 24.4 | 24.4 | 
16 | c1ccc(-c2ccc(CNc3cc(N4CCNCC4)nc4c(C5CC5)cnn34)cc2)nc1 [PPA-038] | 115 | 26.3 | 115 | 3020 | 18.55 | 6.2 | 6.2 | 
17 | O[C@H]1CNCC[C@@H]1CNc1cc(NCc2ccc(-c3ncccn3)cc2)n2ncc(C3CC3)c2n1 [PPA-029] | 63 | 2.8 | 63 | 179 | 45.00 | 1.4 | 1.4 | 
18 | c1ccc(-c2ccc(CNc3cc(N[C@@H]4CCCNC4)nc4c(C5CC5)cnn34)cc2)nc1 [PPA-045] | 374 | 25.7 | 374 | 9610 | 11.27 | 33.2 | 33.2 | 
19 | c1cnn(-c2ccc(CNc3cc(N[C@H]4CCCNC4)nc4c(C5CC5)cnn34)cc2)c1 [PPA-099] |  |  |  |  |  | 1.2 | 0.9 | ++ (>2 and ≤5 fold change.)
20 | c1ccc(-c2ccc(CNc3cc(NC4CCNCC4)nc4c(C5CC5)cnn34)cc2)nc1 [PPA-048] | 82 | 15.7 | 82 | 1290 | 12.06 | 6.8 | 6.8 | 
21 | CC(C)c1cnn2c(NCc3ccc(-c4ccncc4)cc3)cc(NC[C@H]3CCNC[C@@H]3O)nc12 [PPA-002, (3R,4R)-4-(((3-isopropyl-7-((4-(pyridin-4-yl)benzyl)amino)pyrazolo[1,5-a]pyrimidin-5-yl)amino)methyl)piperidin-3-ol] | 34 | 2.3 | 34 | 79 | 0.27 | 127 | 127 | 
22 | CCc1cnn2c(NCc3ccc(-c4ccccc4)cc3)cc(NC[C@H]3CCNC[C@@H]3O)nc12 [PPA-082] | 44 | 2.8 | 44 | 125 | 4.58 | 9.6 | 9.6 | 
